Experimental data: the CheMixHub viscosity set
“And” between values parts separate entries of the source, which are not always exact repeats. Identical values can stand only once.

Assay: xn = mol fraction of the nth substance listed

CCCCCCCCCCCCCCCC + CCCCCCC
Conditions	viscosity [mPa·s]
293.17 K, 101 kPa, x1 = 0.097	0.553
293.17 K, 101 kPa, x1 = 0.195	0.73
293.17 K, 101 kPa, x1 = 0.492	1.475
293.17 K, 101 kPa, x1 = 0.785	2.597
298 K, 101 kPa, x2 = 0.5	1.377
298.15 K, 101 kPa, x1 = 0.211	0.7064
298.15 K, 101 kPa, x1 = 0.4067	1.102
298.15 K, 101 kPa, x1 = 0.5795	1.552
298.15 K, 101 kPa, x1 = 0.7867	2.202
298.15 K, 101.33 kPa, x2 = 0.1067	2.618
298.15 K, 101.33 kPa, x2 = 0.1981	2.268
298.15 K, 101.33 kPa, x2 = 0.3001	1.922
298.15 K, 101.33 kPa, x2 = 0.4055	1.603
298.15 K, 101.33 kPa, x2 = 0.5077	1.307
298.15 K, 101.33 kPa, x2 = 0.607	1.08
298.15 K, 101.33 kPa, x2 = 0.7086	0.8554
298.15 K, 101.33 kPa, x2 = 0.8028	0.68
298.15 K, 101.33 kPa, x2 = 0.9019	0.5217
303.15 K, 101 kPa, x1 = 0.097	0.485
303.15 K, 101 kPa, x1 = 0.195	0.632
303.15 K, 101 kPa, x1 = 0.492	1.233
303.15 K, 101 kPa, x1 = 0.785	2.079
318 K, 101 kPa, x2 = 0.5	1.005

CCCCCCCCCCCCCCCC + CCCCCCCCCC
Conditions	viscosity [mPa·s]
298.15 K, 101.33 kPa, x2 = 0.1051	2.749
298.15 K, 101.33 kPa, x2 = 0.2075	2.481
298.15 K, 101.33 kPa, x2 = 0.3045	2.2
298.15 K, 101.33 kPa, x2 = 0.4045	1.976
298.15 K, 101.33 kPa, x2 = 0.5081	1.733
298.15 K, 101.33 kPa, x2 = 0.6095	1.53
298.15 K, 101.33 kPa, x2 = 0.7051	1.336
298.15 K, 101.33 kPa, x2 = 0.8037	1.17
298.15 K, 101.33 kPa, x2 = 0.9041	0.9885
313.15 K, 100 kPa, x2 = 0.35	1.6
313.15 K, 100 kPa, x2 = 0.61	1.18
313.15 K, 100 kPa, x2 = 0.83	0.9

CCCCCCCCCCCCCCCC + CCCO
101 kPa
Conditions	viscosity [mPa·s]
298.15 K, x2 = 0.3	2.665
308.15 K, x2 = 0.8	1.795

CC(=O)OCc1ccccc1 + CCCCO
viscosity [mPa·s], 101.33 kPa
Conditions	x1 = 0.1023	x1 = 0.1976	x1 = 0.3075	x1 = 0.4014	x1 = 0.5022	x1 = 0.5973	x1 = 0.7048	x1 = 0.8005	x1 = 0.8914
293.15 K	2.803	2.748	2.685	2.633	2.578	2.527	2.471	2.422	2.376
303.15 K	2.224	2.18	2.129	2.087	2.043	2.002	1.957	1.918	1.881
313.15 K	1.66	1.641	1.619	1.6	1.581	1.562	1.542	1.524	1.507
323.15 K	1.104	1.116	1.131	1.144	1.158	1.172	1.187	1.201	1.214

CCOCCOCC + COCCO
viscosity [mPa·s], 101.33 kPa
Conditions	298.15 K	308.15 K
x1 = 0.0157	1.497	1.223
x2 = 0.0142	0.608	0.529
x2 = 0.0354	0.617	0.539
x2 = 0.0658	0.631	0.549
x2 = 0.0821	0.639	0.553
x2 = 0.1085	0.647	0.561
x2 = 0.1503	0.663	0.578
x2 = 0.2016	0.685	0.592
x2 = 0.28	0.723	0.62
x2 = 0.3202	0.742	0.639
x2 = 0.3604	0.767	0.655
x2 = 0.4322	0.812	0.691
x2 = 0.4797	0.847	0.718
x2 = 0.5152	0.875	0.739
x2 = 0.5455	0.901	0.758
x2 = 0.5957	0.946	0.792
x2 = 0.6464	0.996	0.832
x2 = 0.7119	1.066	0.883
x2 = 0.7472	1.105	0.918
x2 = 0.8023	1.18	0.969
x2 = 0.8705	1.275	1.054
x2 = 0.9222	1.366	1.119
x2 = 0.9592	1.425	1.167

CC(C)C(=O)O + [2H]O[2H]
101 kPa, x1 = 0.111
Conditions	viscosity
318.1 K	2.122 mPa·s and 2.132 mPa·s and 2.14 mPa·s
318.11 K	2.112 mPa·s
318.12 K	2.092 mPa·s
318.13 K	2.074 mPa·s
318.14 K	2.06 mPa·s
318.15 K	2.046 mPa·s
318.17 K	2.018 mPa·s
318.19 K	2.011 mPa·s
318.2 K	1.997 mPa·s
318.23 K	1.973 mPa·s
318.26 K	1.956 mPa·s
318.29 K	1.944 mPa·s
318.3 K	1.934 mPa·s
318.36 K	1.912 mPa·s
318.39 K	1.902 mPa·s
318.48 K	1.876 mPa·s
318.56 K	1.857 mPa·s
318.66 K	1.838 mPa·s
318.69 K	1.833 mPa·s
318.98 K	1.788 mPa·s
319.21 K	1.763 mPa·s
319.69 K	1.717 mPa·s
320.21 K	1.677 mPa·s
321.2 K	1.615 mPa·s
322.2 K	1.562 mPa·s

CCCCCCCCCCCCCCCC + c1ccccc1
Conditions	viscosity
298 K, 101 kPa, x2 = 0.5	1.65 mPa·s and 1.651 mPa·s
298.15 K, 101.33 kPa, x1 = 0.0535	0.6803 mPa·s
298.15 K, 101.33 kPa, x1 = 0.09944	0.7563 mPa·s
298.15 K, 101.33 kPa, x1 = 0.2199	0.9761 mPa·s
298.15 K, 101.33 kPa, x1 = 0.3234	1.161 mPa·s
298.15 K, 101.33 kPa, x1 = 0.4341	1.429 mPa·s
298.15 K, 101.33 kPa, x1 = 0.5194	1.649 mPa·s
298.15 K, 101.33 kPa, x1 = 0.641	1.972 mPa·s
298.15 K, 101.33 kPa, x1 = 0.6928	2.107 mPa·s
298.15 K, 101.33 kPa, x1 = 0.8361	2.492 mPa·s
298.15 K, 101.33 kPa, x1 = 0.9416	2.887 mPa·s
318 K, 101 kPa, x2 = 0.5	1.192 mPa·s and 1.193 mPa·s
